# Tested on: IGF-1
# Assay: Test Example 3: action of various capsaicinoids on mouse IGF-1 (test solutions on back skin)
# Format: in vivo
# Conditions: mouse, in vivo
row,SMILES,amount of IGF-1 in the mouse back skin compared to the base preparation
1,COc1cc(CNC(=O)CCCCCC(C)C)ccc1O [nordihydrocapsaicin],significantly elevated
2,CCCCCCCCC(=O)NCc1ccc(O)c(OC)c1 [nonylic vanillylamide],significantly elevated

# Same assay, conditions: test solution containing 0.01% by mass in ethanol/physiological saline; 0.2 mL/cm^2 on back skin; 30 minutes after application; p<0.01 (FIG. 3, FIG. 4)
row,SMILES,amount of IGF-1 in the mouse back skin compared to the base preparation
1,COc1cc(CNC(=O)CCCCCCC(C)C)ccc1O [dihydrocapsaicin],significantly elevated
2,"COc1cc(CNC(=O)CCCC/C=C/C(C)C)ccc1O [capsaicin, (6E)-N-[(4-hydroxy-3-methoxyphenyl)methyl]-8-methyl-6-nonenamide, reference compound]",significantly elevated
3,COc1cc(COC(=O)CCCCCC(C)C)ccc1O [nordihydrocapsiate],significantly elevated
4,COc1cc(COC(=O)CCCC/C=C/C(C)C)ccc1O [capsiate],significantly elevated
5,COc1cc(COC(=O)CCCCCCC(C)C)ccc1O [dihydrocapsiate],significantly elevated
